Experimental data published in patent publication US20110262508A1, “ANTIMICROBIAL COMPOSITIONS, FORMULATIONS AND USES THEREOF” (priority 2007, published 2011).
Where two headings read alike, the source gives them in different places. Peptide text beside a SMILES is read from it.

Experiments:
Format in all cases: cell-based
[1] = system: S. typhimurium strain AroA
Protocol: Synthetic peptides were tested for their ability to inhibit bacterial growth in liquid culture. […] 19606, Acinetobacter spp. ATCC 17903, Acinetobacter spp. ATCC 19004, Escherichia coli strain BL21, S. aureus, S. typhimurium strain AroA, P. aeruginosa or P. pneumotropica. After 5-6 hours of shaking at 37° C., growth was measured as absorbance at 595 nm. As a control, cultures were grown in the presence of 0.1% acetonitrile (i.e., the concentration present in 10 μM peptide).

[2] = system: A. baumannii ATCC 19606, Acinetobacter spp. ATCC 17903, Acinetobacter spp. ATCC 19004, E. coli BL21, S. aureus, S. typhimurium AroA, P. aeruginosa, P. …; assay: Antibacterial spectrum over the serial dilution panel (Table 6); conditions: summary of Table 6
Protocol: Synthetic peptides were tested for their ability to inhibit bacterial growth in liquid culture. The peptides were added at a concentration of between about 5 μM and about 10 μM to individual wells of 96-deep-well dishes that contained liquid growth media freshly inoculated with one of the following bacteria: A. baumannii ATCC Accession No. 19606, Acinetobacter spp. ATCC 17903, Acinetobacter spp. ATCC 19004, Escherichia coli strain BL21, S. aureus, S. typhimurium strain AroA, P. aeruginosa or P. pneumotropica. After 5-6 hours of shaking at 37° C., growth was measured as absorbance at 595 nm. As a control, cultures were grown in the presence of 0.1% acetonitrile (i.e., the concentration present in 10 μM peptide).

[3] = system: A. baumannii
Method in brief: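 Laboratory strains and 50 clinical isolates of A. baumannii were tested by CLSI broth microdilution, with serially diluted peptide (0.1-64 μg) and about 1×10^5 C.F.U. per well, incubated aerobically overnight at 35±2° C. MIC was read visually. MBC came from subculturing clear wells, as ≥99.9% inoculum reduction.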

Q: With `CC(C)C[C@H](NC(=O)[C@H](C)NC(=O)[C@H](CS)NC(=O)[C@H](CO)NC(=O)[C@H](C)NC(=O)[C@H](CO)NC(=O)[C@H](CCCNC(=N)N)NC(=O)CN)C(=O)N[C@@H](CCCNC(=N)N)C(=O)N[C@@H](Cc1c[nH]c2ccccc12)C(=O)N[C@@H](C)C(=O)NCC(=O)N1CCC[C@H]1C(=O)N[C@@H](CC(C)C)C(=O)N1CCC[C@H]1C(=O)N[C@@H](CCCCN)C(=O)NCC(=O)N[C@@H](CCCNC(=N)N)C(=O)NCC(=O)N[C@@H](CCCCN)C(=O)N[C@@H](Cc1c[nH]c2ccccc12)C(=O)N[C@@H](Cc1c[nH]c2ccccc12)C(=O)N[C@@H](CS)C(=O)O` [Ac68] (H-GRSASCALRWAGPLPKGRGKWWC-OH; N-terminus and C-terminus assumed) as the compound, how does the “% inhibition of bacterial growth by peptide” value (from here on “% inhibition”) ([1]; 12.5 μM peptide) read?
A: 0%

Q: And the “% inhibition” value ([1]; 15 μM peptide)?
A: 0%

Q: What about the “% inhibition” value ([1]; 17.5 μM peptide) of the same compound?
A: 0%

Q: What about the “% inhibition” value ([1]; 20 μM peptide) of the same compound?
A: 0%

Q: And the “selectively inhibited growth of Acinetobacter spp. ATCC 19004” value [2]?
A: selectively inhibited growth

Q: What does the source list for `CC[C@H](C)[C@H](NC(=O)[C@H](Cc1c[nH]c2ccccc12)NC(=O)[C@H](CC(=O)O)NC(=O)[C@H](CO)NC(=O)[C@H](CS)NC(=O)[C@H](CC(C)C)NC(=O)[C@H](CC(C)C)NC(=O)[C@H](C)NC(=O)[C@H](CS)NC(=O)[C@H](CCCNC(=N)N)NC(=O)[C@H](CC(C)C)NC(=O)[C@H](CCCNC(=N)N)NC(=O)[C@H](C)NC(=O)CN)C(=O)N[C@H](C(=O)N[C@@H](CO)C(=O)N[C@@H](CS)C(=O)N[C@@H](CCCNC(=N)N)C(=O)N[C@@H](CC(C)C)C(=O)N[C@@H](CC(C)C)C(=O)NCC(=O)N[C@H](C(=O)N[C@@H](CC(N)=O)C(=O)O)C(C)C)C(C)C` [Ac40] (H-GARLRCALLCSDWIVSCRLLGVN-OH; N-terminus and C-terminus assumed)?
A: selectively inhibited growth of A. baumannii ATCC Accession No. 19606, Acinetobacter spp. ATCC 17903, Acinetobacter spp. ATCC 19004, and S. aureus [2]: selectively inhibited growth; MIC (μM) for amidated peptide [3]: 10 to 15 µM; MIC (μM) for non-amidated Peptide [3]: 10 to 15 µM

Q: Which results are given for `CC[C@H](C)[C@H](NC(=O)[C@H](CCCCN)NC(=O)[C@H](CO)NC(=O)[C@H](CC(C)C)NC(=O)[C@@H](N)CC(C)C)C(=O)N[C@@H](CCCNC(=N)N)C(=O)N[C@@H](C)C(=O)N[C@@H](CC(C)C)C(=O)N[C@@H](CCCNC(=N)N)C(=O)N[C@@H](CCCNC(=N)N)C(=O)N[C@@H](CCCNC(=N)N)C(=O)N[C@@H](CCCNC(=N)N)C(=O)N[C@@H](Cc1ccccc1)C(=O)NCC(=O)N[C@@H](CCC(N)=O)C(=O)N[C@@H](CO)C(=O)N[C@@H](CC(=O)O)C(=O)N[C@@H](CCCCN)C(=O)N[C@@H](CCCNC(=N)N)C(=O)N[C@H](C(=O)N[C@@H](CO)C(=O)N[C@@H](Cc1ccc(O)cc1)C(=O)N[C@@H](CCCCN)C(=O)O)[C@@H](C)CC` [Ac16] (H-LLSKIRALRRRRFGQSDKRISYK-OH)?
A: selectively inhibited growth of A. baumannii ATCC Accession No. 19606, Acinetobacter spp. ATCC 17903 and Acinetobacter spp. ATCC 19004 [2]: selectively inhibited growth; MIC (μM) for non-amidated Peptide [3]: 10 to 15 µM

Q: `CC[C@H](C)[C@H](NC(=O)[C@H](CCCCN)NC(=O)[C@H](CO)NC(=O)[C@H](CC(C)C)NC(=O)[C@@H](N)CC(C)C)C(=O)N[C@@H](CCCNC(=N)N)C(=O)N[C@@H](C)C(=O)N[C@@H](CC(C)C)C(=O)N[C@@H](CCCNC(=N)N)C(=O)N[C@@H](CCCNC(=N)N)C(=O)N[C@@H](CCCNC(=N)N)C(=O)N[C@@H](CCCNC(=N)N)C(=O)N[C@@H](Cc1ccccc1)C(=O)NCC(=O)N[C@@H](CCC(N)=O)C(=O)N[C@@H](CS)C(=O)N[C@@H](CC(=O)O)C(=O)N[C@@H](CCCCN)C(=O)N[C@@H](CCCNC(=N)N)C(=O)N[C@H](C(=O)N[C@@H](CO)C(=O)N[C@@H](Cc1ccc(O)cc1)C(=O)N[C@@H](CCCCN)C(=O)O)[C@@H](C)CC` [Ac15] (H-LLSKIRALRRRRFGQCDKRISYK-OH; N-terminus and C-terminus assumed) was tested. Which “selectively inhibited growth of A. baumannii ATCC Accession No. 19606, Acinetobacter spp. ATCC 17903 and Acinetobacter spp. ATCC 19004” value [2] did it give?
A: selectively inhibited growth

Q: With `CC[C@H](C)[C@H](NC(=O)CN)C(=O)NCC(=O)N[C@@H](CCCCN)C(=O)N[C@@H](Cc1ccccc1)C(=O)N[C@@H](CC(C)C)C(=O)N[C@@H](Cc1c[nH]cn1)C(=O)N[C@@H](CO)C(=O)N[C@@H](C)C(=O)N[C@@H](CCCCN)C(=O)N[C@@H](CCCCN)C(=O)N[C@@H](Cc1ccccc1)C(=O)NCC(=O)N[C@@H](CCCCN)C(=O)N[C@@H](C)C(=O)N[C@@H](Cc1ccccc1)C(=O)N[C@H](C(=O)NCC(=O)N[C@@H](CCC(=O)O)C(=O)N[C@H](C(=O)N[C@@H](CCSC)C(=O)N[C@@H](CC(N)=O)C(=O)N[C@@H](CO)C(=O)O)[C@@H](C)CC)C(C)C` [Ac178, reference compound] (H-GIGKFLHSAKKFGKAFVGEIMNS-OH; N-terminus and C-terminus assumed) as the compound, how does the “selectively inhibited growth of S. aureus” value [2] read?
A: selectively inhibited growth

Q: Which “selectively inhibited growth of S. aureus” value [2] does the source give for `CSCC[C@H](NC(=O)[C@H](CCCNC(=N)N)NC(=O)[C@H](CO)NC(=O)[C@H](CCCNC(=N)N)NC(=O)[C@H](CCCNC(=N)N)NC(=O)[C@H](CC(N)=O)NC(=O)[C@H](Cc1c[nH]cn1)NC(=O)[C@@H]1CCCN1C(=O)[C@H](Cc1c[nH]cn1)NC(=O)[C@@H]1CCCN1C(=O)[C@H](Cc1c[nH]cn1)NC(=O)[C@@H](NC(=O)[C@H](CCC(N)=O)NC(=O)[C@@H](NC(=O)[C@H](Cc1ccc(O)cc1)NC(=O)[C@H](Cc1c[nH]cn1)NC(=O)[C@H](Cc1c[nH]cn1)NC(=O)[C@H](Cc1c[nH]cn1)NC(=O)[C@@H](N)Cc1c[nH]c2ccccc12)[C@@H](C)O)[C@@H](C)O)C(=O)N[C@@H](CO)C(=O)N[C@@H](CCCNC(=N)N)C(=O)N[C@@H](C)C(=O)N[C@@H](CCCNC(=N)N)C(=O)O` [Ac56] (H-WHHHYTQTHPHPHNRRSRMSRAR-OH; N-terminus and C-terminus assumed) here?
A: selectively inhibited growth

Q: How did the “selectively inhibited growth of S. aureus” value [2] turn out when `CC[C@H](C)[C@H](NC(=O)[C@H](CC(C)C)NC(=O)[C@H](CCCNC(=N)N)NC(=O)[C@@H](NC(=O)[C@@H](NC(=O)[C@H](Cc1ccc(O)cc1)NC(=O)[C@H](CCCCN)NC(=O)[C@@H](N)Cc1ccc(O)cc1)[C@@H](C)CC)[C@@H](C)CC)C(=O)N[C@@H](CCC(=O)O)C(=O)N[C@@H](CC(N)=O)C(=O)N[C@@H](Cc1c[nH]c2ccccc12)C(=O)NCC(=O)N[C@@H](CCC(=O)O)C(=O)N[C@@H](CS)C(=O)NCC(=O)N[C@@H](CS)C(=O)N[C@@H](CCCNC(=N)N)C(=O)N[C@@H](Cc1ccc(O)cc1)C(=O)N[C@@H](CS)C(=O)N[C@@H](CCCNC(=N)N)C(=O)N[C@H](C(=O)N[C@H](C(=O)N[C@@H](CCCNC(=N)N)C(=O)O)C(C)C)[C@@H](C)CC` [Ac18] (H-YKYIIRLIENWGECGCRYCRIVR-OH; N-terminus and C-terminus assumed) was run?
A: selectively inhibited growth

Q: Which “selectively inhibited growth of Acinetobacter spp. ATCC 19004, and S. aureus” value [2] does the source give for `CC[C@H](C)[C@H](NC(=O)[C@H](Cc1c[nH]c2ccccc12)NC(=O)[C@H](CC(=O)O)NC(=O)[C@H](CO)NC(=O)[C@H](CO)NC(=O)[C@H](CC(C)C)NC(=O)[C@H](CC(C)C)NC(=O)[C@H](C)NC(=O)[C@H](CO)NC(=O)[C@H](CCCNC(=N)N)NC(=O)[C@H](CC(C)C)NC(=O)[C@@H](N)CCCNC(=N)N)C(=O)N[C@H](C(=O)N[C@@H](CO)C(=O)N[C@@H](CO)C(=O)N[C@@H](CCCNC(=N)N)C(=O)N[C@@H](CC(C)C)C(=O)N[C@@H](CC(C)C)C(=O)NCC(=O)N[C@H](C(=O)N[C@@H](CC(N)=O)C(=O)N[C@@H](CO)C(=O)N[C@@H](CCC(N)=O)C(=O)O)C(C)C)C(C)C` [Ac41] (H-RLRSALLSSDWIVSSRLLGVNSQ-OH; N-terminus and C-terminus assumed) here?
A: selectively inhibited growth

Q: For `CC[C@H](C)[C@H](NC(=O)[C@H](CCCNC(=N)N)NC(=O)[C@H](CCCNC(=N)N)NC(=O)[C@H](CS)NC(=O)CN)C(=O)N[C@H](C(=O)NCC(=O)N[C@@H](Cc1ccccc1)C(=O)N[C@@H](CS)C(=O)N[C@H](C(=O)NCC(=O)N[C@@H](Cc1c[nH]c2ccccc12)C(=O)N[C@@H](CCCNC(=N)N)C(=O)N[C@@H](CC(C)C)C(=O)N[C@@H](CC(C)C)C(=O)N[C@@H](CC(C)C)C(=O)N[C@@H](CC(C)C)C(=O)N[C@@H](CC(C)C)C(=O)N[C@H](C(=O)NCC(=O)N[C@@H](CO)C(=O)NCC(=O)N[C@H](C(=O)O)C(C)C)[C@@H](C)O)C(C)C)[C@@H](C)O` [Ac103] (H-GCRRITGFCVGWRLLLLLTGSGV-OH; N-terminus and C-terminus assumed), which “selectively inhibited growth of S. aureus” value [2] is on record?
A: selectively inhibited growth
